Data from US11306083B2, “Amide substituted imidazo[4,5-C]quinoline compounds with a branched chain linking group for use as an immune response modifier” (3M INNOVATIVE PROPERTIES COMPANY, priority 2017, dated 2022).

Legend:
Format in all cases: cell-based
Conditions in all cases: 21-24 hrs, lowest concentration giving cytokine at least 2× negative control, tested 0.01-30 micromolar
[1] = tested on: IFN-alpha induction in human peripheral blood mononuclear cells (PBMC); test: Cytokine induction in human cells (PBMC): IFN-alpha by ELISA
Experimental: (§1) Cytokine Induction in Human Cells
(§2) Whole blood was obtained from healthy human donors and collected by venipuncture into vacutainer tubes or syringes containing EDTA. Human peripheral blood mononuclear cells (PBMC) were purified from the whole blood by density gradient centrifugation. Histopaque 1077 (15 mL, Sigma, St. Louis, Mo.) was transferred to 6×50 mL sterile polypropylene conical tubes. The Histopaque was overlayed with 15-25 mL of blood diluted 1:2 in Hank's Balanced Salts Solution (HBSS) (Gibco, Life Technology, Grand Island N.Y.). The tubes were then centrifuged at 1370 rpm for 30 minutes at 20° C., with no brake (400×g, GH 3.8A Rotor).
(§3) The interface (buffy coat) containing the PBMC was collected and placed in a new sterile 50 mL conical polypropylene centrifuge tube. The PBMC were mixed with an equal volume of HBSS (about 20 mL from the interface and about 20 mL of HBSS), and then centrifuged at 1090 rpm, 10 min, 20° C., with brake (270×g, GH 3.8A Rotor). After completing centrifugation, the cells were resuspended in 2-3 mL ACK Red blood cell lysis buffer (ammonium chloride potassium solution, Gibco, Life Technology) and incubated for 2-5 minutes at 20° C. […]
(§4) The number of viable cells was determined by counting with a Miltenyi FACS instrument (Miltenyi Biotec Inc., San Diego, Calif.) or by using a hemacytometer. […] Ten microliters of the diluted cells were then applied to the hemacytometer, and the number of viable PBMC were determined by microscopy. […]
(§5) IFN-alpha cytokine levels (pg/mL) were measured by ELISA (human IFN-α, pan specific, Mabtech, Cincinnati, Ohio). IFN-gamma and TNF-alpha levels (pg/mL) were measured by multiplex bead assay (magnetic beads, R & D Systems Minneapolis, Minn.) according to the manufacturer's instructions.
(§6) Specifically, the minimum effective concentration of each compound (micromolar) was determined as the lowest concentration of the compound that induced a measured cytokine response at a level ([…]) that was at least 2× greater than that observed with the negative control wells.

[2] = tested on: IFN-gamma induction in human peripheral blood mononuclear cells (PBMC); test: Cytokine induction in human cells (PBMC): IFN-gamma by multiplex bead assay
Experimental: as §1, §2, §3, §4, §5, §6

[3] = tested on: TNF-alpha induction in human peripheral blood mononuclear cells (PBMC); test: Cytokine induction in human cells (PBMC): TNF-alpha by multiplex bead assay
Experimental: as §1, §2, §3, §4, §5, §6

| SMILES | MEC to Induce Cytokine IFN-alpha [1] [µM] | MEC to Induce Cytokine IFN-gamma [2] [µM] | MEC to Induce Cytokine TNF-alpha [3] [µM] |
| --- | --- | --- | --- |
| CCCCCCCCCCCCCCCCCC(=O)NCCC[C@@H](COCC)n1cnc2c(N)nc3ccccc3c21 [Example 1, N-[(4S)-4-(4-aminoimidazo[4,5-c]quinolin-1-yl)-5-ethoxy-pentyl]octadecanamide] | ≤0.01 | 1.1 | ≤0.01 |
| CCCCCCCCCCCCCC(=O)NCCC[C@@H](COCC)n1cnc2c(N)nc3ccccc3c21 [Example 2, N-[(4S)-4-(4-aminoimidazo[4,5-c]quinolin-1-yl)-5-ethoxy-pentyl]tetradecanamide] | ≤0.01 | 0.04 | ≤0.01 |
| CCCCCCCCCC(=O)NCCC[C@@H](COCC)n1cnc2c(N)nc3ccccc3c21 [Example 3, N-[(4S)-4-(4-aminoimidazo[4,5-c]quinolin-1-yl)-5-ethoxy-pentyl]decanamide] | ≤0.01 | 0.04 | ≤0.01 |
